In US20240294478A1, “ANTI-CANCER COMPOUNDS AND METHODS OF USE” (YALE UNIVERSITY, priority 2021, published 2024):

Experiments:
[1] = Maximum tolerated dose study in healthy mice; type: in vivo
Description: FIGS. 10A-10G. KL-50 is efficacious in an LN229 MGMT−/MMR− intracranial model and is well tolerated with limited myelosuppression at supratherapeutic doses. […] (FIG. 10B) Mean body change with SEM of mice during maximum tolerated dose experiment in non-tumor bearing mice. (FIGS. 10C-10G) Complete blood counts for mice pre-treatment and 7 days post-treatment with escalations of single dose KL-50 delivered PO. WBC lower limit of normal (LLN): 2.2 K/L; Neutrophils LLN: 0.42 K/L; Lymphocyte LLN: 1.7 K/L; RBC LLN: 3.47 M/L; Platelet LLN: 155 K/L. *, P<0.05; ****, P<0.0001.
Healthy mice were treated with escalating doses of KL-50 (0, 25, 50, 100, and 200 mg/kg x 1 dose), and monitored over time for changes in both weights and hematologic profiles. […]. […]

[2] = test system: LN229 MGMT+/−, MMR+/− isogenic lines; assay: Short-term cell viability with ROS scavenger NAC; type: cell-based, human; conditions: increasing concentrations of NAC
Description: Columns, mean; error bars, SD; n=2 independent analyses. For (A) and (C), points, mean; error bars, SD; n=3 technical replicates.
(§1) Short-term Cell Viability Assay. Cells were seeded in 96-well plates at 1000 or 2000 cells/well and allowed to adhere at 23° C. for 60 min and then incubated overnight at 37° C. Cells were treated with indicated concentrations of compounds in triplicate for 4-6 days prior to fixation with 3.7% paraformaldehyde and nuclear staining with 1 μg/mL Hoechst 33342 dye. Cells were imaged on a Cytation 3 imaging reader (BioTek) and quantified using CellProfiler software. For in vitro short-term growth delay experiments, IC50 values were determined from the nonlinear regression equation, [inhibitor] vs normalized response with variable slope.

[3] = test system: PEO4 (BRCA2+) and PEO1 (BRCA2−/−) cells; assay: Short-term viability assay, PEO1/PEO4 model +/- O6BG; type: cell-based, human; conditions: PE01/4 model
Description: FIGS. 8A-8K. (FIG. 8A) Change in percent cells with 1 micronuclei from baseline (DMSO control) after treatment as in FIGS. 5A and 5C. […] (FIG. 8B) Short-term viability assay curves for KL-50 in PD20 cells, deficient in FANCD2 (FANCD2−/−) or complemented with FANCD2 (+FANCD2). (FIG. 8C) Short-term viability assay curves for KL-50 in PEO4 (BRCA2+) and PEO1 (BRCA2−/−) cells pre-treated with 0.01% DMSO control or 10 μM O^6BG (+O^6BG) for 1 h prior to KL-50 addition. (FIG. 8D) Short-term viability assay curves for KL-50 in DLD1 BRCA2+/− and BRCA2−/−cells pre-treated with 0.01% DMSO control or 10 μM O^6BG (+O^6BG) for 1 h prior to KL-50 addition. For FIGS. 8B-8D, points, mean; error bars, SD; n=3 technical replicates. […] The % FANCD2 ubiquitination (% FANCD2 Ub) is quantified as the background-corrected integrated band intensity of the upper band divided by the sum of the background-corrected integrated band intensities of the upper and lower bands. […]
Short-term Cell Viability Assay. […] Cells were imaged on a Cytation 3 imaging reader (BioTek) and quantified using CellProfiler software. For in vitro short-term growth delay experiments, IC50 values were determined from the nonlinear regression equation, [inhibitor] vs normalized response with variable slope.

[4] = test system: LN229 MGMT−/MMR+ and MGMT−/MMR− flank tumors; assay: Flank tumor second study: regimens, schedules, routes; type: in vivo, mouse; conditions: 5, 15, 25 mg/kg; MWF x 3 weeks or M-F x 1 week; PO or IP
Description: FIGS. 9A-91: KL-50 is safe and efficacious on both MGMT−/MMR+ and MGMT−/MMR-flank tumors over a wide range of treatment regimens and conditions. […] (FIG. 9C) Mean body weight of mice during LN229 flank tumor experiments. (FIG. 9D) Kaplan-Meier analysis of LN229 MGMT−/MMR− xenograft flank tumor-bearing mice to determine survival rate based on death, removal from study if mouse body weight loss exceeded 20% of initial body weight, or if tumor volume exceeded 2000 mm^3. […] (FIGS. 9H-91) Xenograft LN229 MGMT−/MMR+ and LN229 MGMT−/MSH6—flank tumors with a larger average starting tumor size of −400 mm^3 and −350 mm^3 respectively, treated with 3 weekly cycles of P.O administration of 10% cyclodextrin (n=4) or KL-50 (n=4, 3 cycles of 25 mg/kg on Monday, Wednesday, and Friday). The study period was limited by control groups which had to be euthanized for exceeding the ethical maximum allowed tumor size, thus ending the study. In all panels, points, mean; error bars, SEM; *, P<0.05; **, P<0.01; ***, P<0.001; ****, P<0.0001; ns, not significant.
In a second study, mice were randomized and administered either KL-50 or vehicle (10% cyclodextrin) by oral gavage or intraperitoneal injection on either M-F x 1 or MWF×3 cycles at 5, 15, or 25 mgs/kg. Caliper measurements were obtained during the dosing period and at least two weeks following treatment. […]

[5] = test system: BJ fibroblast cells (normal cells); assay: Short-term cell viability, normal fibroblasts; type: cell-based, human; conditions: compared with TMZ
Description: FIG. 1B: Short-term viability assay curves for KL-50 in DLD1 MSH6-deficient cells pre-treated with 0.01% DMSO control (CTR) or 10 μM O^6BG (+O^6BG) for 1 h prior to KL-50 addition. […] Short-term viability assay curves for (FIG. 1E) KL-50 in HCT116 MLH1−/−cells or (FIG. 1F) HCT116 cells complemented with chromosome 3 carrying wildtype MLH1 (+Chr3) pre-treated with 0.01% DMSO control or 10 μM O^6BG (+O^6BG) for 1 h prior to KL-50 addition. […] For these figures, points, mean; error bars, SD; n>3 technical replicates.
as §1

SMILES: NC(=O)c1ncn2c(=O)n(CCF)nnc12 [KL-50]
- mice observably ill warranting euthanasia ([1]; 200 mg/kg x 1 dose): Two of three mice
- toxicity in remaining cohorts ([1]; 25, 50, 100 mg/kg x 1 dose): no evidence of toxicity
- complete blood counts day 7 ([1]; all cohorts, 0-200 mg/kg single dose PO): within normal physiological ranges
- tolerability, overall ([1]; escalating single doses): well-tolerated
- weight loss after treatment administration ([1]; single dose 100 or 200 mg/kg, regressed to baseline at the end of one week): greater than 10%
- rescue of toxicity by ROS scavenger NAC [2]: did not result in rescue of KL-50 toxicity
- therapeutic index (TI) [3]: 62 fold
- efficacy and toxicity across regimens [4]: effective and non-toxic
- cytotoxicity in normal human fibroblast cells [5]: No increase in toxicity
